Data reported in ChEMBL document CHEMBL4813966, “Discovery of 3,6-disubstutited-imidazo[1,2-a]pyridine derivatives as a new class of CLK1 inhibitors” (Bioorg Med Chem Lett, 2021).
Calls of active or inactive are those of the source. No cut-off for these calls is given here.

Tests used:
[1] = biological target: T1, Dual specificity protein kinase CLK1 (Homo sapiens, UniProt P49759); experiment: Inhibition of recombinant human CLK1 (130 to end residues) using ERMRPRKRQGSVR as substrate incubated for 40 mins in presence of [gamma-33ATP] by scintillation counting based radiometry assay
Target sequence in this assay (P49759 whole entry): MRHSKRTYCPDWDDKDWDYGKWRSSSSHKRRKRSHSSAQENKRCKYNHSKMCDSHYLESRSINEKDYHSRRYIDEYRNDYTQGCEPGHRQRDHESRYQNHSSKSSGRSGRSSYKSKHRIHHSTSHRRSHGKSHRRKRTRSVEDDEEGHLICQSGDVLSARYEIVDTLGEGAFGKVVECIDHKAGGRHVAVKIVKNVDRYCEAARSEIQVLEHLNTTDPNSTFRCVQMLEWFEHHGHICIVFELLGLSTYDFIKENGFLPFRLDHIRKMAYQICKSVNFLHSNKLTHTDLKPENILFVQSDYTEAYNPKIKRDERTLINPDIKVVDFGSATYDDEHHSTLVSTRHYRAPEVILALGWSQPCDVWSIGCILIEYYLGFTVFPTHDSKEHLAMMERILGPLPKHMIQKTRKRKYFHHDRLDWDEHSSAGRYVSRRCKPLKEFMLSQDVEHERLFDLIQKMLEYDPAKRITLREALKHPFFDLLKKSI

[2] = biological target: T1, Dual specificity protein kinase CLK1; experiment: Inhibition of CLK1 in human SKOV-3 cells assessed as redistribution of SR protein from nucleoplasm to nuclear speckles at 0.1 uM after 24 hrs by immunofluorescence assay; format: cell-based; details: SK-OV-3
Target sequence in this assay (P49759 whole entry, looked up): as the sequence (P49759 whole entry) above

[3] = biological target: T1, Dual specificity protein kinase CLK1; experiment: Inhibition of CLK1 in human SKOV-3 cells assessed as decrease in SRp75 phosphorylation after 24 hrs by Western blot analysis; format: cell-based; details: SK-OV-3, dose 0.33-30 µM
Target sequence in this assay (P49759 whole entry, looked up): as the sequence (P49759 whole entry) above

[4] = biological target: Dual specificity protein kinase CLK4 (Homo sapiens, UniProt Q9HAZ1); experiment: Inhibition of recombinant human CLK4 (128 to end residues) using YRRAAVPPSPSLSRHSSPHQS(p)EDEEE as substrate incubated for 40 mins in presence of [gamma-33ATP] by scintillation counting based radiometry assay
[5] = system: SK-OV-3; experiment: Induction of autophagy in human SKOV-3 cells assessed as degradation of SQSTM1/p62 at 0.33 to 30 uM measured after 24 hrs by Western blot analysis; format: functional, cell-based; details: dose 0.33-30 µM
[6] = biological target: Dual specificity protein kinase CLK2 (Homo sapiens, UniProt P49760); experiment: Inhibition of recombinant human CLK2 (138 to end residues) using YRRAAVPPSPSLSRHSSPHQS(p)EDEEE as substrate incubated for 40 mins in presence of [gamma-33ATP] by scintillation counting based radiometry assay
[7] = system: SK-OV-3; experiment: Induction of autophagic flux in human SKOV-3 cells assessed as LC3-II protein level at 10 uM after 24 hrs in presence of V-ATPase inhibitor bafilomycin-A1 by Western blot analysis; format: functional, cell-based
[8] = system: SK-OV-3; experiment: Induction of autophagy in human SKOV-3 cells transfected with Ad-mRFP-GFP-LC3 assessed as induction of autolysosomes formation by measuring increase in number of red LC3 puncta at 0.1 uM measured after 24 hrs by confocal microscopic analysis; format: functional, cell-based
[9] = biological target: Dual specificity protein kinase CLK3 (Homo sapiens, UniProt P49761); experiment: Inhibition of recombinant full length human CLK3 using ERMRPRKRQGSVR as substrate incubated for 40 mins in presence of [gamma-33ATP] by scintillation counting based radiometry assay
[10] = system: SK-OV-3; experiment: Induction of autophagy in human SKOV-3 cells assessed as increase in LC3-II to LC3-I ratio incubated for 24 hrs by Western blot analysis; format: functional, cell-based; details: dose 0.33-30 µM
[11] = system: SK-OV-3; experiment: Induction of autophagy in human SKOV-3 cells transfected with Ad-mRFP-GFP-LC3 assessed as induction of autophagosomes formation by measuring increase in number of yellow LC3 puncta at 0.1 uM measured after 24 hrs by confocal microscopic analysis; format: functional, cell-based
[12] = biological target: T1, Dual specificity protein kinase CLK1; experiment: Inhibition of CLK1 in human SKOV-3 cells assessed as decrease in SRp55 phosphorylation after 24 hrs by Western blot analysis; format: cell-based; details: SK-OV-3, dose 0.33-30 µM
Target sequence in this assay (P49759 whole entry, looked up): as the sequence (P49759 whole entry) above

[13] = system: SK-OV-3; experiment: Induction of autophagic flux in human SKOV-3 cells assessed as SQSTM1/p62 protein level at 10 uM after 24 hrs in presence of V-ATPase inhibitor bafilomycin-A1 by Western blot analysis; format: functional, cell-based
[14] = biological target: Dual specificity tyrosine-phosphorylation-regulated kinase 1B (Homo sapiens, UniProt Q9Y463); experiment: Inhibition of recombinant full length human DYRK1B using RRRFRPASPLRGPPK as substrate incubated for 40 mins in presence of [gamma-33ATP] by scintillation counting based radiometry assay
[15] = system: SK-OV-3; experiment: Induction of autophagy in human SKOV-3 cells assessed as increase in LC3-II protein level incubated for 24 hrs by Western blot analysis; format: functional, cell-based; details: dose 0.33-30 µM
[16] = biological target: Dual specificity tyrosine-phosphorylation-regulated kinase 1A (Homo sapiens, UniProt Q13627); experiment: Inhibition of recombinant full length human DYRK1A using RRRFRPASPLRGPPK as substrate incubated for 40 mins in presence of [gamma-33ATP] by scintillation counting based radiometry assay

Dual specificity tyrosine-phosphorylation-regulated kinase 1B, sequence (Q9Y463 whole entry): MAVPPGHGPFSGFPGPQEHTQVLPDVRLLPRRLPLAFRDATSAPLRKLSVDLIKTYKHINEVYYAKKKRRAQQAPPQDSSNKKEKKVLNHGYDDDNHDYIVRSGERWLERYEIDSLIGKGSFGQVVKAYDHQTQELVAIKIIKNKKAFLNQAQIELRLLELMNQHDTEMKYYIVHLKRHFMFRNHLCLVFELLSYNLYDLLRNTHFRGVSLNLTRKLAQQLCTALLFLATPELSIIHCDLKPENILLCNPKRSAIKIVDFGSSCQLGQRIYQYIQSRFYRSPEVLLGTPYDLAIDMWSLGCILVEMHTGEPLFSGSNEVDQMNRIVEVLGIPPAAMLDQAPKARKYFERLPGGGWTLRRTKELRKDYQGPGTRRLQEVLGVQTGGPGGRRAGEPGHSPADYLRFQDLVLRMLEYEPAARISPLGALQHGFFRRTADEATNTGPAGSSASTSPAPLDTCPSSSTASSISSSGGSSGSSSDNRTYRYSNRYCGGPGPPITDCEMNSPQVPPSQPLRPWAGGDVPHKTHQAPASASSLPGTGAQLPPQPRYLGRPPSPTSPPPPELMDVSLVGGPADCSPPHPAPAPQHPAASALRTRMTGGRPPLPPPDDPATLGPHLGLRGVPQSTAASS
Dual specificity protein kinase CLK4, sequence (Q9HAZ1 whole entry): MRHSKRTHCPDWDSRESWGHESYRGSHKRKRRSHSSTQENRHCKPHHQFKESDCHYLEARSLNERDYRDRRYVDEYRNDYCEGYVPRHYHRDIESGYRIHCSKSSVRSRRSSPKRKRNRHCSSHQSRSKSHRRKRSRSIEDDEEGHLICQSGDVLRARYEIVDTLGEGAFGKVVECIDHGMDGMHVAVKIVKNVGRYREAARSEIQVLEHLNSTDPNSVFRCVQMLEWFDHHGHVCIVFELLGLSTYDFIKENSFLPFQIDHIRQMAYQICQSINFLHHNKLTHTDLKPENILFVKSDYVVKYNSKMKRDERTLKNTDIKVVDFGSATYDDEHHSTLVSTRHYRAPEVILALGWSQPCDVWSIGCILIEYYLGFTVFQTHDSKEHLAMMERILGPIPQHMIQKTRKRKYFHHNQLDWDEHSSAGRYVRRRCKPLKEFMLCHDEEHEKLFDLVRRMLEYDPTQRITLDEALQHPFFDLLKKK
Dual specificity protein kinase CLK2, sequence (P49760 whole entry): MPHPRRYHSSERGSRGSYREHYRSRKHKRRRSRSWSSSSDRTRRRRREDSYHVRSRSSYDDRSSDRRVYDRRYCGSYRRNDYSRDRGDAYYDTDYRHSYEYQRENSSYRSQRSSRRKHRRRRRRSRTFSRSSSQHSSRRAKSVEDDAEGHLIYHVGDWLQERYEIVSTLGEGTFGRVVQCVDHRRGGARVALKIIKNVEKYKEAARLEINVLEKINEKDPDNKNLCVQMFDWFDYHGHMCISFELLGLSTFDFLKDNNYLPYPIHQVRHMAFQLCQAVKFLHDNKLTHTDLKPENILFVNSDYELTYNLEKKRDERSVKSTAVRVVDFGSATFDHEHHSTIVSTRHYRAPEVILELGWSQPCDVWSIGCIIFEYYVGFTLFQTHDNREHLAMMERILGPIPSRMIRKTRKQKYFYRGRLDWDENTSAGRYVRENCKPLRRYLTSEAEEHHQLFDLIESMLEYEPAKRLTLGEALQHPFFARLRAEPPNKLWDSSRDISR
Dual specificity protein kinase CLK3, sequence (P49761 whole entry): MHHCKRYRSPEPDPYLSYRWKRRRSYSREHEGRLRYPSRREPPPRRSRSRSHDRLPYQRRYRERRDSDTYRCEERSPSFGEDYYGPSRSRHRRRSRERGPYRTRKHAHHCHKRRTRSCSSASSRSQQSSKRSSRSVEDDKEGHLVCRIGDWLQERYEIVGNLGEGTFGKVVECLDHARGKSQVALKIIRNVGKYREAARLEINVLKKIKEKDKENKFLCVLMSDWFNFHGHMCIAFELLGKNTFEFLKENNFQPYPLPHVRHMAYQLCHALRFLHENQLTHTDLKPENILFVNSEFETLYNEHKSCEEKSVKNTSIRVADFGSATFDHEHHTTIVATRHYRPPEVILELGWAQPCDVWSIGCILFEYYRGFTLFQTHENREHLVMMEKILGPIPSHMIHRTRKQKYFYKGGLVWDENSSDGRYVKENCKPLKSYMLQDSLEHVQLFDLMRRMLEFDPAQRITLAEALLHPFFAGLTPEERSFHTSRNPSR

SMILES	IC50 [1] [nM]	further results
COc1ccc(CNC(=O)c2cnc3ccc(-c4ccncc4)cn23)cc1	13	–
COc1ccc([C@H](C)NC(=O)c2cnc3ccc(-c4ccc5ncccc5c4)cn23)cc1	44	–
C[C@H](NC(=O)c1cnc2ccc(-c3ccc4ncccc4c3)cn12)c1ccccc1	52	–
C[C@@H](NC(=O)c1cnc2ccc(-c3cnn(C)c3)cn12)c1ccc(Cl)cc1	11	–
COc1ccc(CNC(=O)c2cnc3ccc(-c4c(C)noc4C)cn23)cc1	> 10000	–
COc1ccc(CNC(=O)c2cnc3ccc(-c4cnn(C)c4)cn23)cc1	6	–
COc1ccc([C@@H](C)NC(=O)c2cnc3ccc(-c4ccc5ncccc5c4)cn23)cc1	6	–
C[C@@H](NC(=O)c1cnc2ccc(-c3cnn(C)c3)cn12)c1ccccc1	14	–
COc1ccc([C@@H](C)NC(=O)c2cnc3ccc(-c4cnn(C)c4)cn23)cc1	8	–
COc1ccc(CNC(=O)c2cnc3ccc(-c4ccc5ocnc5c4)cn23)cc1	122	–
COc1ccc(NC(=O)c2cnc3ccc(-c4cnn(C)c4)cn23)cc1	7	–
COc1cccc(CNC(=O)c2cnc3ccc(-c4cnn(C)c4)cn23)c1	11	–
COc1ccc(CNC(=O)c2cnc3ccc(-c4ccc5ccccc5c4)cn23)cc1	> 10000	–
CC(C)Oc1ccc(CNC(=O)c2cnc3ccc(-c4cnn(C)c4)cn23)cc1	8	–
COc1ccc([C@H](C)NC(=O)c2cnc3ccc(-c4cnn(C)c4)cn23)cc1	809	–
Cn1cc(-c2ccc3ncc(C(=O)NCc4ccc(Cl)cc4)n3c2)cn1	14	–
COc1ccc(NNC(=O)c2cnc3ccc(-c4ccc5ncccc5c4)cn23)cc1	5	–
Cn1cc(-c2ccc3ncc(C(=O)NCc4ccccc4)n3c2)cn1	12	–
COc1ccc(CNC(=O)c2cnc3ccc(-c4ccc5ncccc5c4)cn23)cc1	4	inhibition [2]: Active; inhibition [3]: Dose-Dependent Effect; IC50 [4]: 17 nM; Activity [5]: Active; IC50 [6]: 50 nM; Activity [7]: inactive; Activity [8]: Active; IC50 [9]: > 10 µM; Activity [10]: Dose-Dependent Effect; Activity [11]: Active; inhibition [12]: Dose-Dependent Effect; Activity [13]: inactive; IC50 [14]: 148 nM; Activity [15]: Dose-Dependent Effect; IC50 [16]: 10 nM
CNC(=O)c1cnc2ccc(-c3cnn(C)c3)cn12	23	–
C[C@@H](NC(=O)c1cnc2ccc(-c3ccc4ncccc4c3)cn12)c1ccccc1	6	–
C[C@H](NC(=O)c1cnc2ccc(-c3cnn(C)c3)cn12)c1ccc(Cl)cc1	399	–
C[C@H](NC(=O)c1cnc2ccc(-c3cnn(C)c3)cn12)c1ccccc1	296	–
